Results on 4 sequences are retold here after publication PMC9644404, “Mechanistic Insights into the Activation of Lecithin–Cholesterol Acyltransferase in Therapeutic Nanodiscs Composed of Apolipoprotein A-I Mimetic Peptides and Phospholipids” (Molecular Pharmaceutics, 2022).

The subject of data set [1] is recombinant human lecithin cholesterol acyltransferase (LCAT). The data set can be described thus: LCAT activity assay (DHE esterification in DMPC/DHE/peptide nanodiscs). It is filed as biochemical. The settings on record: relative to 22A, 30 min; for LCAT activity (in words): pH 7.4, 37 °C, fluorescence. From the text:
(§1) ApoA-I mimetic peptides 22A ([…]), 22A-K22Q ([…]), and 22A-R7Q ([…]) were obtained from Peptide Protein Research Ltd. (Fareham, UK). 1,2-Dimyristoyl-sn-glycerol-3-phosphocholine (DMPC), 1,2-dipalmitoyl-sn-glycerol-3-phosphocholine (DPPC), and ergosta-5,7,9,(11),22-tetra-3beta-ol (dehydroergosterol, DHE) were purchased from Avanti Polar Lipids Inc. (Alabaster, AL). Recombinant human lecithin cholesterol acyltransferase (LCAT) was synthesized by ProSpec-Tany TechnoGene Ltd. (East Brunswick, NJ). Cholesterol oxidase (COx) was obtained from Sigma-Aldrich (St. Louis, MO).
The LCAT activity assay relies on the integration of DHE in the nanodisc structure as a substrate for LCAT. DHE is a naturally occurring fluorescent sterol analog; the presence of three conjugated double bonds in the steroid ring system gives this probe a slight fluorescence in the near-UV region of the spectrum.[42] As a consequence of the acyltransferase activity of LCAT, DHE in the PL bilayer is stored in the inner core of sHDL as DHE-ester. The esterification of DHE causes a shift in the sterol analog emission wavelength from 372 to 425 nm; this shift, together with the use of COx, which selectively renders the unesterified DHE nonfluorescent, allows the exclusive detection and quantification of the DHE-ester. This provides information about the LCAT–sHDL interaction and activity.[43],[44] sHDL containing the fluorescent sterol DHE for LCAT activity assay was prepared via thermal cycling method. In a glass vial, DMPC and DHE in chloroform were combined at a 9:1 molar ratio and were first dried with Rotavapor R-200 at room temperature for 1–2 h and then an additional 1 h under nitrogen flow at room temperature. […] After this, the plates went through a second round of incubation at 37 °C with gentle shaking (250 rpm/h) for 1 h to extinguish the fluorescence of unesterified DHE. After re-equilibrating the plate at room temperature, DHE fluorescence was detected at an excitation wavelength of 325 nm and an emission wavelength of 425 nm using Varioskan LUX (Thermo Scientific, Waltham, MA). […]

The test system of data set [2] is LCAT. The data set can be described thus: QCM: LCAT binding to peptide-lipid nanodiscs on sensor. The arrangement: species or system human. The settings on record: for adsorption of LCAT on the discs (in words): 10 nM LCAT in PBS, 20 °C, versus 22A; for estimated number of LCAT enzymes bound per disc: calculated from adsorbed mass after LCAT injection (10 nM LCAT in PBS, 75 μL/min, 17 min, 20 °C), DMPC nanodiscs, three measurements.
Source text: as §1
Before QCM measurements, the LCAT stock solution was prepared by dissolving 10 μg of LCAT in 500 μL of PBS. The solution was centrifuged (14 000g) twice through Amicon Ultra-0.5, 10 kDa cutoff filter (Sigma-Aldrich) for buffer exchange and purification. The retentate was diluted to a total volume of 500 μL (PBS) after each step. Prepared 20 μg/mL (∼430 nM) LCAT solution was stored in −20 °C before further use.
(§2) Impedance-based QCM instrument QCM-Z500 (KSV Instruments Ltd., Helsinki, Finland) was used for the measurements. The temperature was kept constant at 20 °C. Before measurements, silica-coated sensors (Q-Sense Inc./Biolin Scientific, Västra Frölunda, Sweden) were flushed with 70% (v/v) ethanol and ultrapure water, dried under nitrogen flow, and oxygen-plasma-treated (PDC-002; Harrick Plasma, Ithaca, NY) for 5 min at 29.6 W and 133–173 Pa. Samples were injected into the flow channel using a peristaltic pump system. After the baseline of the signal at different frequency overtones (3, 5, and 7) was stabilized in PBS, a nanodisc surface was formed by flowing nanodisc solution (0.15 mg/mL in PBS, 150 μL/min) on the sensor for 5 min, until the signal was again stabilized. Flow speed was then decreased to 75 μL/min for 5 min of flow with PBS to ensure a solid, uniform nanodisc surface. Next, 10 nM (0.47 μg/mL) LCAT was then injected through the flow channel at 75 μL/min for 17 min. Then, the running solution was again changed to PBS to see the frequency signal stabilize. All measurements were performed three times; between measurements, the sensor and the flow channel were cleaned in situ by 3 min sequential injections of 20 mM CHAPS, 2% (v/v) Hellmanex, 70% (v/v) ethanol, and ultrapure water at 150 μL/min. Frequency overtone signals were normalized, baseline corrected, and averaged for each measurement.

Data set [3] in a line: QCM: adsorption of nanodiscs on silica sensor. It is filed as physicochemical. The settings on record: nanodiscs 0.15 mg/mL in PBS, 150 μL/min, 5 min, 20 °C, versus 22A. How it is done: as §2, with “Frequency overtone signals were normalized, baseline corrected, and averaged for each measurement.” left out
Data set [4] relates to LCAT. Conditions: cited from earlier work. From the text: Therefore, this has long been a sought-after property of synthetic HDL-mimetic nanodiscs and apoA-I mimetic peptides. The nativelike maturation of the nanodiscs by lecithin–cholesterol acyltransferase (LCAT) has been regarded as a desired feature as it would lead to the esterification of free CHOL and the formation of hydrophobic cholesteryl ester (CE)-rich core. […] The ... || To investigate the location, conformation, and dynamics of apoA-Imimetic peptides in nanodiscs in silico, we complexed coarse-grained models of DMPC lipids with models of apoA-Imimetic peptides 22A and 22A-K and simulated the systems up to 80 μs, measured in the effective Martini force field time. To prepare the systems, 200 lipids and 28 peptides were placed randomly into the simulation box, and after a short vacuum simulation to compress them, the systems were solvated. Equilibrated nanodiscs formed rapidly after starting the production runs. The proteolytic removal of C-terminal lysine of 2 ... || (+ 2 further places)

Data set [5] deals with LCAT. The settings on record: cited from earlier work. An excerpt:
The ... || The formation of acyl intermediate of LCAT requiring the entry of PCs into the active site is another important factor in LCAT activity. […] We have also ...
This is another data set of the same source.

For “PVLDLFQELLNELLEALKQKLK [22A-R7Q, 22A variant with charge neutralization of residue R7]”, the “LCAT activity (in words)” value in data set [1] is given as “nearly identical activity with 22A”. Besides, in the data set on LCAT [2], the “adsorption of LCAT on the discs (in words)” value was “reduced the adsorption of LCAT on the discs” and the “estimated number of LCAT enzymes bound per disc” value was “one LCAT was attached to every five nanodiscs”. Moreover, in data set [3], the “adsorption of nanodiscs on the sensor (in words)” value is reported as “decreased adsorption of nanodiscs on the sensor”.
Turning to “PVLDLFRELLNELLEALKQKL [22A-K, 22A without C-terminal lysine K22]”, the “decrease of CHOL esterification on removal of K22” value in the data set with LCAT [4] (22A without C-terminal K22 versus 22A) is reported as around 60%. In addition, the “LCAT activation on removal of C-terminal lysine (in words)” value in the data set with LCAT [4] (proteolytic removal in serum) is reported as “significantly reduces LCAT activation”. Further, the “effect on phospholipolytic action of LCAT on removal of K22 (in words)” value with LCAT [5] is on record as “no effect on phospholipolytic action mediated by LCAT”.
Regarding “PVLDLFRELLNELLEALKQKLK [22A, apoA-I mimetic peptide 22A (Esperion Therapeutics, ESP24218)]”, in the data set with LCAT [2], the “estimated number of LCAT enzymes bound per disc” value was “approximately one LCAT was bound to every two nanodiscs”. In the data set with LCAT [4] (versus native apoA-I), the “LCAT activation (in words)” value is given as “activate LCAT nearly as well as native apoA-I”.
Turning to “PVLDLFRELLNELLEALKQKLQ [22A-K22Q, 22A variant with charge neutralization of residue K22]”, in data set [1] (lipid:peptide 2:1 w/w, DHE 0-35 μM, LCAT 7 μg/mL, PBS + 1 mM EDTA + 60 μM albumin pH 7.4, 37 °C, fluorescence 325/425 nm, triplicate, two independent experiments), the “decrease of LCAT activity” value amounted to 50%. For the same sequence, the “LCAT activity (in words)” value in data set [1] is “decreased the LCAT activation potency”. In addition, in the data set with LCAT [2], the “adsorption of LCAT on the discs (in words)” value was “reduced the adsorption of LCAT on the discs” and the “estimated number of LCAT enzymes bound per disc” value was “one LCAT was attached to every five nanodiscs”. Besides, the “adsorption of nanodiscs on the sensor (in words)” value in data set [3] is given as “decreased adsorption of nanodiscs on the sensor”.
